# Test results as given in PubChem BioAssay AID248 (DTP/NCI, 2004).
# Several values for one entry are separate records, joined by “and”; a condition that tells them apart may be missing. Equal values may be shown once. Toxic doses and inconclusive results are not listed. Peptide text beside a SMILES is read from it. * marks the point of attachment. Cbz = O=C(OCc1ccccc1)*; Bn = c1ccc(C*)cc1
# Test system: L1210 leukemia ip in BDF1 mice, survival T/C
# Assay: NCI In Vivo Anticancer Drug Screen. Data for tumor model L1210 Leukemia (intraperitoneal) in B6D2F1 (BDF1) mice
# Conditions: endpoint: mean survival time, higher = longer survival
# Procedure, shortened: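 Ratio derived from survival: compound-dosed mice over vehicle-dosed mice, all bearing a transplantable tumor.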
# [1] = dose: 100.0 mg/kg/injection, schedule: Q04DX003 (ip), vehicle: saline
# [2] = dose: 200.0 mg/kg/injection, schedule: Q04DX003 (ip), vehicle: saline
# [3] = dose: 100.0 mg/kg/injection, schedule: Q01DX009 (ip), vehicle: Klucel (hydroxypropylcellulose) (HPC)
# [4] = dose: 100.0 mg/kg/injection, schedule: Q04DX003 (ip), vehicle: Klucel (hydroxypropylcellulose) (HPC)
# [5] = dose: 200.0 mg/kg/injection, schedule: Q01DX009 (ip), vehicle: Klucel (hydroxypropylcellulose) (HPC)
# [6] = dose: 200.0 mg/kg/injection, schedule: Q04DX003 (ip), vehicle: Klucel (hydroxypropylcellulose) (HPC)
# [7] = dose: 400.0 mg/kg/injection, schedule: Q01DX009 (ip), vehicle: Klucel (hydroxypropylcellulose) (HPC)
# [8] = dose: 400.0 mg/kg/injection, schedule: Q04DX003 (ip), vehicle: Klucel (hydroxypropylcellulose) (HPC)
# [9] = dose: 100.0 mg/kg/injection, schedule: Q01DX009 (ip), vehicle: saline with Tween-80
# [10] = dose: 200.0 mg/kg/injection, schedule: Q01DX009 (ip), vehicle: saline with Tween-80
# [11] = dose: 100.0 mg/kg/injection, schedule: Q01DX001 (ip), vehicle: saline
# [12] = dose: 200.0 mg/kg/injection, schedule: Q01DX001 (ip), vehicle: saline
# [13] = dose: 400.0 mg/kg/injection, schedule: Q01DX001 (ip), vehicle: saline
# [14] = dose: 400.0 mg/kg/injection, schedule: Q01DX009 (ip), vehicle: saline with Tween-80
# [15] = dose: 100.0 mg/kg/injection, schedule: Q04DX003 (ip), vehicle: saline with Tween-80
# [16] = dose: 200.0 mg/kg/injection, schedule: Q04DX003 (ip), vehicle: saline with Tween-80
# [17] = dose: 400.0 mg/kg/injection, schedule: Q04DX003 (ip), vehicle: saline with Tween-80
smiles,measurement,setting,value
C[PH+](c1ccccc1)c1ccccc1.C[PH+](c1ccccc1)c1ccccc1.[Br][Pd][Br],T/C,"dose: 50.0 mg/kg/injection, schedule: Q04DX003 (ip), vehicle: saline",98 % of control
same,T/C,[1],105 % of control
same,T/C,[2],100 % of control
COCCOC,T/C,"dose: 86.0 mg/kg/injection, schedule: Q01DX Z (ip), vehicle: saline",103 % of control
same,T/C,"dose: 100.0 mg/kg/injection, schedule: Q04DX003 (ip), vehicle: acetone",107 % of control
same,T/C,"dose: 125.0 mg/kg/injection, schedule: Q01DX Z (ip), vehicle: saline",106 % of control
same,T/C,"dose: 130.0 mg/kg/injection, schedule: Q01DX Z (ip), vehicle: saline",106 % of control
same,T/C,"dose: 200.0 mg/kg/injection, schedule: Q04DX003 (ip), vehicle: acetone",102 % of control
same,T/C,"dose: 250.0 mg/kg/injection, schedule: Q01DX Z (ip), vehicle: saline",113 % of control
same,T/C,"dose: 400.0 mg/kg/injection, schedule: Q04DX003 (ip), vehicle: acetone",102 % of control
same,T/C,"dose: 450.0 mg/kg/injection, schedule: Q01DX Z (ip), vehicle: saline",154 % of control
same,T/C,"dose: 500.0 mg/kg/injection, schedule: Q01DX Z (ip), vehicle: saline",116 % of control
same,T/C,"dose: 675.0 mg/kg/injection, schedule: Q01DX Z (ip), vehicle: saline",150 % of control and 160 % of control
same,T/C,"dose: 1500.0 mg/kg/injection, schedule: Q01DX Z (ip), vehicle: saline",96 % of control
COC(=O)C1Oc2ccc(Cl)cc2Cc2cc(Cl)ccc2O1,T/C,[3],93 % of control
same,T/C,[4],100 % of control
same,T/C,[5],93 % of control
same,T/C,[6],93 % of control
same,T/C,[7],93 % of control
same,T/C,[8],90 % of control
COC(=O)C(CC(C)C)NC(=O)C(CSCc1ccccc1)NC(=O)OCc1ccccc1 (stereo unspecified) (Cbz-Cys(Bn)-Leu-OMe; configuration not given here),T/C,"dose: 100.0 mg/kg/injection, schedule: Q04DX003 (ip), vehicle: DMSO",102 % of control
same,T/C,"dose: 200.0 mg/kg/injection, schedule: Q04DX003 (ip), vehicle: DMSO",104 % of control
same,T/C,"dose: 400.0 mg/kg/injection, schedule: Q04DX003 (ip), vehicle: DMSO",96 % of control
CNC(=O)Nc1cccc(OC(=O)NC(C)(C)C)c1,T/C,[9],91 % of control
same,T/C,[10],93 % of control
CO[C@@]12[C@H](COC(N)=O)C3=C(C(=O)C(C)=C(NCCO)C3=O)N1C[C@@H]1N[C@@H]12,T/C,"dose: 2.9 mg/kg/injection, schedule: Q01DX001 (ip), vehicle: acetone",113 % of control
same,T/C,"dose: 4.3 mg/kg/injection, schedule: Q01DX001 (ip), vehicle: acetone",117 % of control
same,T/C,"dose: 6.6 mg/kg/injection, schedule: Q01DX001 (ip), vehicle: saline",113 % of control
same,T/C,"dose: 7.5 mg/kg/injection, schedule: Q01DX009 (ip), vehicle: saline",91 % of control
same,T/C,"dose: 9.9 mg/kg/injection, schedule: Q01DX001 (ip), vehicle: saline",111 % of control
same,T/C,"dose: 22.0 mg/kg/injection, schedule: Q01DX001 (ip), vehicle: saline",113 % of control
same,T/C,"dose: 33.0 mg/kg/injection, schedule: Q01DX001 (ip), vehicle: acetone",159 % of control
NS(=O)(=O)c1ccc(S(=O)(=O)N2CCCCC2)cc1,T/C,[3],90 % of control
same,T/C,[5],96 % of control
CCOC(=O)c1ccc(C)[n+]([O-])c1,T/C,"dose: 50.0 mg/kg/injection, schedule: Q01DX001 (ip), vehicle: saline",96 % of control
same,T/C,[11],98 % of control
same,T/C,[12],100 % of control
same,T/C,[13],93 % of control
CCC(=O)Nc1cccc(OC(C)=O)c1,T/C,[9],91 % of control
same,T/C,[10],90 % of control
same,T/C,[14],107 % of control
Cc1ccc(CNC(=S)Nc2ccccc2)cc1,T/C,"dose: 1.56 mg/kg/injection, schedule: Q01DX009 (ip), vehicle: Klucel (hydroxypropylcellulose) (HPC)",107 % of control
same,T/C,"dose: 3.12 mg/kg/injection, schedule: Q01DX009 (ip), vehicle: Klucel (hydroxypropylcellulose) (HPC)",104 % of control
same,T/C,"dose: 6.25 mg/kg/injection, schedule: Q01DX009 (ip), vehicle: Klucel (hydroxypropylcellulose) (HPC)",96 % of control and 100 % of control
same,T/C,[4],96 % of control
same,T/C,[6],96 % of control
same,T/C,[8],92 % of control
CCCCCCCCc1cc2c(c3c1CCCC3)CCC1CCCCC21 (stereo unspecified),T/C,[11],104 % of control
same,T/C,[12],98 % of control
same,T/C,[13],101 % of control
N#CCCSCCc1ccccc1,T/C,"dose: 75.0 mg/kg/injection, schedule: Q01DX009 (ip), vehicle: saline with Tween-80",91 % of control
same,T/C,"dose: 150.0 mg/kg/injection, schedule: Q01DX009 (ip), vehicle: saline with Tween-80",96 % of control
O=C(CNS(=O)(=O)c1ccccc1)c1ccc(Cl)cc1Cl,T/C,[3],94 % of control
same,T/C,[5],105 % of control
same,T/C,[7],95 % of control
COC(=O)C(CSCSC)NC(=O)/C=C/c1ccccc1C (stereo unspecified),T/C,[9],101 % of control
same,T/C,[15],95 % of control
same,T/C,[10],101 % of control
same,T/C,[16],93 % of control
same,T/C,[14],113 % of control
same,T/C,[17],97 % of control
Clc1ccc2nncn2n1,T/C,"dose: 50.0 mg/kg/injection, schedule: Q04DX003 (ip), vehicle: saline with Tween-80",97 % of control
same,T/C,[15],100 % of control
same,T/C,[16],100 % of control
O=C(O)c1ccccc1C(=O)Nc1ccc(F)cc1,T/C,[4],103 % of control
same,T/C,[12],106 % of control
same,T/C,[6],87 % of control
same,T/C,[13],96 % of control
same,T/C,[8],94 % of control
O=C(NCCCCCCNC(=O)N1CC1)N1CC1,T/C,"dose: 0.08 mg/kg/injection, schedule: Q01DX009 (ip), vehicle: saline",107 % of control
same,T/C,"dose: 0.15 mg/kg/injection, schedule: Q01DX009 (ip), vehicle: saline",97 % of control
same,T/C,"dose: 0.19 mg/kg/injection, schedule: Q01DX009 (ip), vehicle: saline",122 % of control
same,T/C,"dose: 0.3 mg/kg/injection, schedule: Q01DX009 (ip), vehicle: saline",119 % of control
same,T/C,"dose: 0.4 mg/kg/injection, schedule: Q04DX003 (ip), vehicle: saline",113 % of control
same,T/C,"dose: 0.66 mg/kg/injection, schedule: Q01DX009 (ip), vehicle: saline",168 % of control
same,T/C,"dose: 0.8 mg/kg/injection, schedule: Q04DX003 (ip), vehicle: saline",115 % of control
same,T/C,"dose: 1.4 mg/kg/injection, schedule: Q01DX009 (ip), vehicle: saline",117 % of control
same,T/C,"dose: 1.7 mg/kg/injection, schedule: Q01DX001 (ip), vehicle: saline",121 % of control
same,T/C,"dose: 2.2 mg/kg/injection, schedule: Q01DX009 (ip), vehicle: saline",86 % of control
same,T/C,"dose: 2.5 mg/kg/injection, schedule: Q04DX003 (ip), vehicle: saline",166 % of control
same,T/C,"dose: 3.75 mg/kg/injection, schedule: Q01DX001 (ip), vehicle: saline",150 % of control
O=Cc1ccc(N(c2ccccc2)c2ccccc2)cc1,T/C,[3],102 % of control
same,T/C,[4],96 % of control
same,T/C,[5],91 % of control
same,T/C,[6],100 % of control
same,T/C,[7],94 % of control
same,T/C,[8],94 % of control
FC(F)(F)c1ccc2c(c1)C1c3ccccc3C2c2ccccc21,T/C,"dose: 100.0 mg/kg/injection, schedule: Q01DX009 (ip), vehicle: saline",98 % of control
same,T/C,[1],100 % of control
same,T/C,"dose: 200.0 mg/kg/injection, schedule: Q01DX009 (ip), vehicle: saline",100 % of control
same,T/C,[2],98 % of control
same,T/C,"dose: 400.0 mg/kg/injection, schedule: Q01DX009 (ip), vehicle: saline",91 % of control
same,T/C,"dose: 400.0 mg/kg/injection, schedule: Q04DX003 (ip), vehicle: saline",100 % of control
O=c1ccc2ccccc2[nH]1,T/C,"dose: 100.0 mg/kg/injection, schedule: Q01DX001 (ip), vehicle: Klucel (hydroxypropylcellulose) (HPC)",108 % of control
same,T/C,"dose: 100.0 mg/kg/injection, schedule: Q01DX001 (ip), vehicle: other",105 % of control
same,T/C,"dose: 200.0 mg/kg/injection, schedule: Q01DX001 (ip), vehicle: Klucel (hydroxypropylcellulose) (HPC)",111 % of control
same,T/C,"dose: 200.0 mg/kg/injection, schedule: Q01DX001 (ip), vehicle: other",92 % of control
same,T/C,"dose: 400.0 mg/kg/injection, schedule: Q01DX001 (ip), vehicle: Klucel (hydroxypropylcellulose) (HPC)",113 % of control
CC(C)(C)CC(C)(C)c1ccc(OCCOc2ccccc2NC(=O)c2ccc3ccccc3c2O)cc1,T/C,[15],98 % of control
same,T/C,[16],103 % of control
same,T/C,[17],86 % of control
